Experimental data: patent US20110152166A1, “METHOD OF MODULATION OF PROTEIN PHOSPHORYLATION-DEPENDENT CONFORMATIONAL TRANSITIONS WITH LOW MOLECULAR WEIGHT COMPOUNDS” (priority 2006, published 2011)
Like-named read-outs stand apart in the source and are kept apart here. Ends that are not written are not given here.

Key:
Assay type in all cases: biochemical
GST-PDK1 [Lys115Met] = target: T1, GST-PDK1 [Lys115Met] (Homo sapiens, UniProt O15530, K115M); test: PDK1 activity assay with T308tide
T1 construct: different protein constructs, comprising the full length protein or the catalytic domain alone; made in house; host or cells: HEK293 cells (pEBG-2T-PDK1 mutant)

GST-PDK1 [Val127Thr] = target: T2, GST-PDK1 [Val127Thr] (Homo sapiens, UniProt O15530, V127T); test: PDK1 activity assay with T308tide; details: for AC50 / Max. activity: GST-PDK1 [Val127Thr]; for activation of PDK1 Val127Thr mutant: Val127 replaced by Thr
T2 construct: different protein constructs, comprising the full length protein or the catalytic domain alone; made in house; host or cells: HEK293 cells (pEBG-2T-PDK1 mutant)
T2 sequence (O15530 1-556 V127T): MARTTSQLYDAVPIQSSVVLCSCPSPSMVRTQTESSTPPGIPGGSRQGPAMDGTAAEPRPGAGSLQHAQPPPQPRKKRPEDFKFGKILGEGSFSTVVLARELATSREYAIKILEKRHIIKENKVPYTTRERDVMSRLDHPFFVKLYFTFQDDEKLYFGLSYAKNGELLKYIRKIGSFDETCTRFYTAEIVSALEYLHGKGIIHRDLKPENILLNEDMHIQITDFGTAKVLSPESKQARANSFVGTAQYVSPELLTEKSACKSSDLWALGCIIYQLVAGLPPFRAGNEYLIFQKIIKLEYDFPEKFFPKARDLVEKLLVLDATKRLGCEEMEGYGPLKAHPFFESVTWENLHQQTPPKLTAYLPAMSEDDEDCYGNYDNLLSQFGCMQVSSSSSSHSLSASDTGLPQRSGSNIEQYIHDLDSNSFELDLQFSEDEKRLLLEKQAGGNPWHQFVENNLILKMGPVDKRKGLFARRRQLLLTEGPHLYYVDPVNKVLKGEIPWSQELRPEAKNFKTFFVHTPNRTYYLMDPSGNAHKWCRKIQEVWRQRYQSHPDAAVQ

PKCζ = target: T3, PKCζ (Homo sapiens, UniProt Q05513); test: AGC kinase panel activity assay (MBP); details: for PKCξ (%) activity: 1% DMSO = 100%
T3 construct: deuteron uptake in a full-length AGC kinase; For this analysis we chose PKCζ; made in house; host or cells: HEK293
T3 sequence (Q05513 1-592): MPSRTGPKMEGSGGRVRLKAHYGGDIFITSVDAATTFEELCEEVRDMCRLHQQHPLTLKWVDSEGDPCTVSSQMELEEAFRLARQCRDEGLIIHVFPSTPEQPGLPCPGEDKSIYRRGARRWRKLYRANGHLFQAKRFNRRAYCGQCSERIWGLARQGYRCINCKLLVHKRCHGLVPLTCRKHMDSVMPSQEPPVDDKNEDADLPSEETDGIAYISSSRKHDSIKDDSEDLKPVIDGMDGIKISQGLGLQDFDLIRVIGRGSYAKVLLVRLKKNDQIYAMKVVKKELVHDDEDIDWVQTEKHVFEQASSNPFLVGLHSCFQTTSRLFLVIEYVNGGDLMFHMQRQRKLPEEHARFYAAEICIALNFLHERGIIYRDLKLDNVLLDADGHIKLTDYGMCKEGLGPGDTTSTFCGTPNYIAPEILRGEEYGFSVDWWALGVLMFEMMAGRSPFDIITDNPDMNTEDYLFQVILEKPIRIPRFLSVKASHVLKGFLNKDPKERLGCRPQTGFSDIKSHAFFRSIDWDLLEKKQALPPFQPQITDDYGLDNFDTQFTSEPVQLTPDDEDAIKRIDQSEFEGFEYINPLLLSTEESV
Method: Protein kinase activity tests were performed essentially as previously described (Balendran et al., 2000; Biondi et al., 2000; Biondi et al., 2001). Substrates used were either MBP (for PKCζ or polypeptides (Crosstide for PKB, S6K, SGK and PRK2; T308tide for PDK1, and Kemptide for PKA). PKA (Sigma) was measured in the presence of 100 μM cAMP. Alternatively, assays were performed in a 96 well format, aliquots spotted on p81 phosphocellulose papers (Whatmann), washed in 0.01% phosphoric acid, dried, and then exposed and analysed using Phospholmager technology (Storm, Molecular Dynamics). Activity measurements were performed in duplicates with less than 10% difference between duplicate pairs. Experiments were repeated at least twice, although most of the experiments were repeated multiple times, with similar results.
Activity assays for each kinase were performed as described in Materials and Methods in the presence of 1% DMSO (100%). Except PKA, all protein kinases were produced as a GST-fusion. S6K1, PKBα, SGK mutants used were S6K1-T2-[Thr412Glu], PKBa[Ser473Asp] and ΔN-SGK[Ser422Asp].

T1 sequence (O15530 whole entry K115M, the tested form may be a part): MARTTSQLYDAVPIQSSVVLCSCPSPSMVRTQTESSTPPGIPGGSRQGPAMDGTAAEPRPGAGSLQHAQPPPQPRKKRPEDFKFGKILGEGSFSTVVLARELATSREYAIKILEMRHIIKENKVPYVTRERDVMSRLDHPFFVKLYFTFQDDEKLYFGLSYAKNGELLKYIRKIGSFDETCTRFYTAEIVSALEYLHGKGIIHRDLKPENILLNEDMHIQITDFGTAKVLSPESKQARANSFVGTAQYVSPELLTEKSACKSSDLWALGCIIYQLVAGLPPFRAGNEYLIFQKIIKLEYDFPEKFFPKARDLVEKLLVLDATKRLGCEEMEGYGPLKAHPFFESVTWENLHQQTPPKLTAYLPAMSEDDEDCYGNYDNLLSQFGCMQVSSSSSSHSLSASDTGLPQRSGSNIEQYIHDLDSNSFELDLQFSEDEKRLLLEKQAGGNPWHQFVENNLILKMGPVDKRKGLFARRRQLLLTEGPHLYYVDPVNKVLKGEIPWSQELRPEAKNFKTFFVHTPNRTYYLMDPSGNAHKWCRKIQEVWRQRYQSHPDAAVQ

AC50 (GST-PDK1 [Lys115Met]; read-out: AC50) [µM] | AC50 (GST-PDK1 [Val127Thr]) [µM] | Max. activity (GST-PDK1 [Val127Thr]) [U/mg] | activation of PDK1 Val127Thr mutant (GST-PDK1 [Val127Thr]) [%] | effect on PKCζ activity (in words) (PKCζ; 20 μM) | PKCξ (%) activity (PKCζ; 20 μM compound) [%] | PKCξ (%) activity (PKCζ; 200 μM compound) [%] | inhibition of PKCζ (in words) (PKCζ; panel, concentration not given) | AC50 (GST-PDK1 [Lys115Met]) | Compound
> 200 | 104 ± 58 | 1.69 ± 0.2 | 240 | no significant effect | 94 | 21 | inhibited PKCζ | – | O=C(O)CSC(CC(=O)c1ccc(Cl)cc1)c1ccccc1 (centres unmarked) [Compound 1]
– | – | – | – | – | 104 | 86 | – | – | COC(=O)CSC(CC(=O)c1ccc(Cl)cc1)c1ccccc1 (centres unmarked) [Compound 2]
– | 0.14 ± 0.07 | 2.36 ± 0.15 | 260 | – | – | – | – | No Effect | REPRILSEEEQEMFRDFDYIADWC [PIFtide, reference compound]
